Marks after values point to notes of the source that are not given here.
The molecules below were run against T1, hERG (human ether-a-go-go-related gene) potassium channel (Homo sapiens, UniProt Q12809) (assay: not given). Settings: not given.
T1 sequence (Q12809 whole entry): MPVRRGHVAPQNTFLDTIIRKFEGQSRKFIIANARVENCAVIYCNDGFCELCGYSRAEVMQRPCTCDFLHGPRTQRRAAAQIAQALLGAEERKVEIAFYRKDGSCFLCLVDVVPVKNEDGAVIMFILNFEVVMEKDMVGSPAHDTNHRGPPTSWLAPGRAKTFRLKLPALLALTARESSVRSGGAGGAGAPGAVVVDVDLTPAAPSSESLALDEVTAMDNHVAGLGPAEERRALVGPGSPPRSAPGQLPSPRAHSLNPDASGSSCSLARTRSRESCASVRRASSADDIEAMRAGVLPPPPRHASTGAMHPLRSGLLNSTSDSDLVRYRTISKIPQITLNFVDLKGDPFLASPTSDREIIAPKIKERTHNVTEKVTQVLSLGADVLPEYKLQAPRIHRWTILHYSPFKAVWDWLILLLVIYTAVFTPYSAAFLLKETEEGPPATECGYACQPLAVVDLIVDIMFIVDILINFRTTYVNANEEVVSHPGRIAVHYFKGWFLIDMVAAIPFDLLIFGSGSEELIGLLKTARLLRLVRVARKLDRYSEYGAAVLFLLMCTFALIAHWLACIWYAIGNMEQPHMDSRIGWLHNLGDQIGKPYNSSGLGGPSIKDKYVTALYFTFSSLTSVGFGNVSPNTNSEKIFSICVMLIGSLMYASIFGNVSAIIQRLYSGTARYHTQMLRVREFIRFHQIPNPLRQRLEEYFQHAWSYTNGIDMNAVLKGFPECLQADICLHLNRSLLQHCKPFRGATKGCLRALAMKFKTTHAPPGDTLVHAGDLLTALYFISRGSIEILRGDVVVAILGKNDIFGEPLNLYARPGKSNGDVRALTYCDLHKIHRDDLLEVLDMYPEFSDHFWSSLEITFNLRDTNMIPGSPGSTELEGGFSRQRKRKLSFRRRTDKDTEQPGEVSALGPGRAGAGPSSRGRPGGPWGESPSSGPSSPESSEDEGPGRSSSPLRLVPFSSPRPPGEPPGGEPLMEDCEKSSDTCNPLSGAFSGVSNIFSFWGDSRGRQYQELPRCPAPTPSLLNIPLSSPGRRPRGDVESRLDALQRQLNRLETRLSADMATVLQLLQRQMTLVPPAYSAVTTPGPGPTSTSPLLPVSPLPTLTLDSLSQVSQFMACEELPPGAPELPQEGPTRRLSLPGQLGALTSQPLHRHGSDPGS

| SMILES | % change@TL7@10 uM |
| --- | --- |
| O=c1cc(C(F)(F)F)c2ccc(NCc3ccc4cc(-c5nn[nH]n5)oc4c3)cc2o1 [Example 222] | 41% |

What follows are molecules tested against T1, hERG (human ether-a-go-go-related gene) potassium channel (assay: QPatch automated patch-clamp hERG activator 4-concentration EC50 assay). Settings: increase of hERG tail current amplitude at 7 second (TL7); 3.3 uM (footnote *); hERG stably expressed in CHO cells.
Source text: A patch-clamp assay on the QPatch© automated patch clamp system was employed to assesses whether compounds functionally enhance the cardiac delayed rectifier hERG (human ether-a-go-go-related gene) potassium channel. The assay measures electric the current passing through hERG channels that are heterologously expressed in a stable Chinese hamster ovary (CHO) cell line. Channels are opened by a hERG-specific voltage protocol and the compound effect is directly characterized by the activation of the hERG current. EC50 values are obtained from fitting 4-concentration dose response curves (1.1, 3.3, 10 & 30 uM) in triplicates at 4 different sections of the voltage protocol (steady state current amplitude at +10 mV, at +30 mV, peak tail current amplitude and tail current amplitude at 7 second).

| SMILES | % change@TL7 (*@3.3 uM) |
| --- | --- |
| Fc1cc2cc(-c3nnn[nH]3)oc2cc1CNc1ccc(C(F)(F)F)c(Br)c1 [Example 177] | 215* % |
| FC(F)(F)Oc1ccc(NCc2ccc3c(-c4nn[nH]n4)coc3c2)cc1Br [Example 233] | 202* % |

Same assay, conditions: increase of hERG tail current amplitude at 7 second (TL7); 10 uM; hERG stably expressed in CHO cells

| SMILES | % change@TL7@10 uM |
| --- | --- |
| N#CCOc1ccc(NCc2cc3oc(-c4nnn[nH]4)cc3cc2Br)cc1C(F)(F)F [Example 155] | 370% |
| FC(F)Oc1ccc(NCc2cc3oc(-c4nnn[nH]4)cc3cc2Br)cc1C(F)(F)F [Example 156] | 356% |
| FC(F)COc1ccc(NCc2cc3oc(-c4nnn[nH]4)cc3cc2Cl)cc1C(F)(F)F [Example 157] | 350% |
| Fc1cc2cc(-c3nnn[nH]3)oc2cc1CNc1ccc(C(F)(F)F)c(C(F)(F)F)c1 [Example 158] | 277% |
| Fc1cc2cc(-c3nnn[nH]3)oc2cc1CNc1cc(C(F)(F)F)c(Br)c(C(F)(F)F)c1 [Example 159] | 388% |
| CC(C)c1ccc(NCc2cc3oc(-c4nnn[nH]4)cc3cc2F)cc1Br [Example 160] | 347% |
| CCOc1ccc(NCc2cc3oc(-c4nnn[nH]4)cc3cc2F)cc1C(F)(F)F [Example 161] | 288% |
| Fc1cc2cc(-c3nnn[nH]3)oc2cc1CNc1ccc(OCC(F)F)c(C(F)(F)F)c1 [Example 162] | 372% |
| CC(C)Oc1ccc(NCc2cc3oc(-c4nnn[nH]4)cc3cc2F)cc1C(F)(F)F [Example 163] | 250% |
| FC(F)(F)COc1ccc(NCc2cc3oc(-c4nnn[nH]4)cc3cc2Br)cc1C(F)(F)F [Example 164] | 308% |
| Fc1cc2cc(-c3nnn[nH]3)oc2cc1CNc1ccc(OCC(F)(F)F)c(C(F)(F)F)c1 [Example 168] | 240% |
| Cc1cc2cc(-c3nnn[nH]3)oc2cc1CNc1ccc(OCC(F)(F)F)c(C(F)(F)F)c1 [Example 170] | 299% |
| CC(C)Oc1ccc(NCc2ccc3cc(-c4nnn[nH]4)oc3c2Cl)cc1C(F)(F)F [Example 171] | 291% |
| CCOc1ccc(NCc2ccc3cc(-c4nn[nH]n4)oc3c2)cc1Br [Example 172] | 284% |
| CC(C)Oc1ccc(NCc2cc3oc(-c4nnn[nH]4)cc3cc2Br)cc1C(F)(F)F [Example 173] | 278% |
| COc1ccc(NCc2ccc3cc(-c4nn[nH]n4)oc3c2)cc1Br [Example 174] | 273% |
| Fc1cc2cc(-c3nnn[nH]3)oc2cc1CNc1ccc(F)c(C(F)(F)F)c1 [Example 176] | 120% |
| CCOc1ccc(NCc2cc3oc(-c4nnn[nH]4)cc3cc2Br)cc1C(F)(F)F [Example 178] | 262% |
| Fc1cc2cc(-c3nnn[nH]3)oc2cc1CNc1ccc(Cl)c(Br)c1 [Example 180] | 231% |
| CCc1ccc(NCc2cc3oc(-c4nnn[nH]4)cc3cc2F)cc1Br [Example 181] | 322% |

| SMILES | % change@TL7@10 uM |
| --- | --- |
| Clc1ccc(NCc2ccc3cc(-c4nn[nH]n4)oc3c2)cc1Br [Example 182] | 249% |
| FC(F)(F)COc1ccc(NCc2ccc3cc(-c4nnn[nH]4)oc3c2Cl)cc1C(F)(F)F [Example 187] | 230% |
| Cc1cc2cc(NCc3cc4oc(-c5nnn[nH]5)cc4cc3Cl)cc(Cl)c2o1 [Example 188] | 108% |
| FC(F)(F)c1cc(NCc2cc3oc(-c4nnn[nH]4)cc3cc2Cl)cc(C(F)(F)F)c1Br [Example 189] | 350% |
| CCCc1ccc(NCc2cc3oc(-c4nnn[nH]4)cc3cc2F)cc1F [Example 190] | 167% |
| Cc1cc2cc(NCc3ccc4cc(-c5nn[nH]n5)oc4c3)cc(Cl)c2o1 [Example 194] | 205% |
| Cc1cc(NCc2cc3oc(-c4nnn[nH]4)cc3cc2F)cc(C(F)(F)F)c1 [Example 195] | 249% |
| Fc1cc2cc(-c3nnn[nH]3)oc2cc1CNc1ccc(C(F)(F)F)c(Cl)c1 [Example 196] | 169% |
| FC(F)(F)c1ccc(NCc2cc3oc(-c4nnn[nH]4)cc3cc2Cl)cc1Cl [Example 198] | 187% |
| Fc1c(Cl)cc(NCc2cc3oc(-c4nnn[nH]4)cc3cc2Cl)cc1C(F)(F)F [Example 201] | 225% |
| N#Cc1cc(NCc2ccc3cc(-c4nnn[nH]4)oc3c2Cl)ccc1OC(F)F [Example 202] | 174% |
| Fc1cc2cc(-c3nnn[nH]3)oc2cc1CNc1ccc(C(F)(F)F)c(F)c1 [Example 203] | 136% |
| Fc1cc2cc(-c3nnn[nH]3)oc2cc1CNc1ccc(OCC(F)(F)F)c(Cl)c1 [Example 205] | 222% |
| CCOc1ccc(NCc2ccc3cc(-c4nnn[nH]4)oc3c2Cl)cc1C(F)(F)F [Example 206] | 160% |
| CC(C)c1ccc(NCc2cc3oc(-c4nnn[nH]4)cc3cc2Cl)cc1C(F)(F)F [Example 207] | 297% |
| Fc1cc2cc(-c3nnn[nH]3)oc2cc1CNc1ccc(Cl)c(Cl)c1 [Example 208] | 285% |
| Cc1nsc2ccc(NCc3ccc4cc(-c5nn[nH]n5)oc4c3)cc12 [Example 209] | 137% |
| N#CCOc1ccc(NCc2ccc3cc(-c4nnn[nH]4)oc3c2Cl)cc1C(F)(F)F [Example 210] | 134% |
| CCOc1ccc(NCc2cc3oc(-c4nnn[nH]4)cc3cc2F)cc1Cl [Example 211] | 248% |
| FC(F)(F)Oc1cc(Cl)cc(NCc2cc3oc(-c4nnn[nH]4)cc3cc2Cl)c1 [Example 212] | 116% |

| SMILES | % change@TL7@10 uM |
| --- | --- |
| Cc1cc(NCc2cc3oc(-c4nnn[nH]4)cc3cc2Cl)cc(C(F)(F)F)c1 [Example 213] | 144% |
| Fc1cc(NCc2cc3oc(-c4nnn[nH]4)cc3cc2F)ccc1Cl [Example 214] | 138% |
| Fc1ccc(NCc2cc3oc(-c4nnn[nH]4)cc3cc2F)cc1Cl [Example 215] | 132% |
| CC(C)COc1ccc(NCc2ccc3cc(-c4nn[nH]n4)oc3c2)cc1Br [Example 216] | 88% |
| CCOc1ccc(NCc2cc3oc(-c4nnn[nH]4)cc3cc2Cl)cc1Cl [Example 217] | 116% |
| FC1(F)Oc2ccc(NCc3ccc4cc(-c5nn[nH]n5)oc4c3)cc2C(F)(F)O1 [Example 219] | 71% |
| CCCc1c(C)cc(NCc2cc3oc(-c4nnn[nH]4)cc3cc2Cl)cc1Cl [Example 220] | 148% |
| Fc1ccc(NCc2cc3oc(-c4nnn[nH]4)cc3cc2Cl)cc1CC(F)(F)F [Example 221] | 81% |
| O=C(O)c1cc2cc(Cl)c(CNc3ccc(OC(F)F)c(C(F)(F)F)c3)cc2o1 [Example 223] | 176% |
| O=C(O)c1cc2cc(Cl)c(CNc3ccc(OCC(F)(F)F)c(C(F)(F)F)c3)cc2o1 [Example 224] | 222% |
| O=C(O)c1cc2cc(F)c(CNc3ccc(OCC(F)(F)F)c(Cl)c3)cc2o1 [Example 225] | 138% |
| O=C(O)c1cc2cc(F)c(CNc3ccc(OC(F)(F)F)c(Cl)c3)cc2o1 [Example 226] | 182% |
| O=C(O)c1cc2cc(F)c(CNc3ccc(OC(F)(F)F)c(Br)c3)cc2o1 [Example 227] | 188% |
| O=C(O)c1cc2cc(F)c(CNc3ccc(SC(F)(F)F)c(Cl)c3)cc2o1 [Example 228] | 140% |
| O=C(O)c1cc2cc(F)c(CNc3cc(C(F)(F)F)c(Br)c(C(F)(F)F)c3)cc2o1 [Example 229] | 424% |
| O=C(O)c1cc2cc(F)c(CNc3ccc(OC(F)F)c(C(F)(F)F)c3)cc2o1 [Example 230] | 244% |
| O=C(O)c1cc2cc(F)c(CNc3ccc(OCC(F)(F)F)c(C(F)(F)F)c3)cc2o1 [Example 231] | 239% |
| O=C(O)c1cc2cc(F)c(CNc3cc(Cl)c(Cl)c(Cl)c3)cc2o1 [Example 232] | 247% |
